Reference: the supplement of paper PMC10307832

Tests used:
Test in all cases: relative viability (nuclei count vs DMSO), 5 days (fraction); higher = more cells survive
[1] = compound: Cc1ccc2nc(NCCN)c3ncc(C)n3c2c1 + C[C@]1(O)C[C@@H](c2nc(-c3ccc4ccc(-c5ccccc5)nc4c3)c3c(N)nccn32)C1 [Linsitinib] (partner 1 µM)
Method in brief: (§1)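 For relative viability, nuclei counts in treated wells were divided by those in vehicle wells. Lung cancer cell lines had been pin-tool dosed in 1536-well plates the day after seeding and cultured for 5 days, then fixed and stained in one step (final 0.05% Triton X-100, 1% formaldehyde, 1 ug/ml Hoechst) and imaged at 4×. Doses were one drug alone or a fixed anchor-drug dose plus five library-drug doses (not always all listed) in √10 steps, and values are duplicate-plate medians.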

Salubrinal + Pictilisib = compound: O=C(/C=C/c1ccccc1)NC(NC(=S)Nc1cccc2cccnc12)C(Cl)(Cl)Cl [Salubrinal] + CS(=O)(=O)N1CCN(Cc2cc3nc(-c4cccc5[nH]ncc45)nc(N4CCOCC4)c3s2)CC1 [Pictilisib] (partner 1 µM)
Method in brief: as §1

[2] = compound: Cc1ccc2nc(NCCN)c3ncc(C)n3c2c1 + C[C@@H](Oc1cc(-c2cnn(C3CCNCC3)c2)cnc1N)c1c(Cl)ccc(F)c1Cl [Crizotinib] (partner 1 µM)
Method in brief: as §1

[3] = compound: Cc1ccc2nc(NCCN)c3ncc(C)n3c2c1 + COc1cc2c(Oc3ccc(NC(=O)C4(C(=O)Nc5ccc(F)cc5)CC4)cc3F)ccnc2cc1OCCCN1CCOCC1 [Foretinib] (partner 0.25 µM)
Method in brief: as §1

Cell Line: NCI-H2347
- relative viability ([1]; first compound 0.04 µM): 0.963
- relative viability ([1]; first compound 0.1265 µM): 1
- relative viability ([1]; first compound 0.4 µM): 0.944
- relative viability ([1]; first compound 1.265 µM): 0.829
- relative viability ([1]; first compound 4 µM): 0.893
- relative viability (Salubrinal + Pictilisib; first compound 0.08 µM): 0.805
- relative viability (Salubrinal + Pictilisib; first compound 0.253 µM): 0.517
- relative viability (Salubrinal + Pictilisib; first compound 0.8 µM): 0.905
- relative viability (Salubrinal + Pictilisib; first compound 2.53 µM): 0.678
- relative viability (Salubrinal + Pictilisib; first compound 8 µM): 0.434
- relative viability ([2]; first compound 0.04 µM): 0.653
- relative viability ([2]; first compound 0.1265 µM): 0.673
- relative viability ([2]; first compound 0.4 µM): 0.615
- relative viability ([2]; first compound 1.265 µM): 0.617
- relative viability ([2]; first compound 4 µM): 0.625
- relative viability ([3]; first compound 0.04 µM): 1.2
- relative viability ([3]; first compound 0.1265 µM): 0.741
- relative viability ([3]; first compound 0.4 µM): 1.02
- relative viability ([3]; first compound 1.265 µM): 0.869
- relative viability ([3]; first compound 4 µM): 0.792

Cell Line: NCI-H1993
- relative viability ([1]; first compound 0.04 µM): 0.726
- relative viability ([1]; first compound 0.1265 µM): 0.763
- relative viability ([1]; first compound 0.4 µM): 0.673
- relative viability ([1]; first compound 1.265 µM): 0.75
- relative viability ([1]; first compound 4 µM): 0.73
- relative viability (Salubrinal + Pictilisib; first compound 0.08 µM): 0.817
- relative viability (Salubrinal + Pictilisib; first compound 0.253 µM): 0.827
- relative viability (Salubrinal + Pictilisib; first compound 0.8 µM): 0.877
- relative viability (Salubrinal + Pictilisib; first compound 2.53 µM): 0.773
- relative viability (Salubrinal + Pictilisib; first compound 8 µM): 0.861
- relative viability ([2]; first compound 0.04 µM): 0.822
- relative viability ([2]; first compound 0.1265 µM): 0.896
- relative viability ([2]; first compound 0.4 µM): 0.811
- relative viability ([2]; first compound 1.265 µM): 0.812
- relative viability ([2]; first compound 4 µM): 0.826
- relative viability ([3]; first compound 0.04 µM): 0.904
- relative viability ([3]; first compound 0.1265 µM): 0.685
- relative viability ([3]; first compound 0.4 µM): 0.748
- relative viability ([3]; first compound 1.265 µM): 0.626
- relative viability ([3]; first compound 4 µM): 0.698

Cell Line: NCI-H322M
- relative viability ([1]; first compound 0.04 µM): 0.889
- relative viability ([1]; first compound 0.1265 µM): 0.907
- relative viability ([1]; first compound 0.4 µM): 0.857
- relative viability ([1]; first compound 1.265 µM): 0.79
- relative viability ([1]; first compound 4 µM): 0.899
- relative viability (Salubrinal + Pictilisib; first compound 0.08 µM): 0.476
- relative viability (Salubrinal + Pictilisib; first compound 0.253 µM): 0.541
- relative viability (Salubrinal + Pictilisib; first compound 0.8 µM): 0.578
- relative viability (Salubrinal + Pictilisib; first compound 2.53 µM): 0.539
- relative viability (Salubrinal + Pictilisib; first compound 8 µM): 0.498
- relative viability ([2]; first compound 0.04 µM): 1.02
- relative viability ([2]; first compound 0.1265 µM): 0.882
- relative viability ([2]; first compound 0.4 µM): 0.832
- relative viability ([2]; first compound 1.265 µM): 0.944
- relative viability ([2]; first compound 4 µM): 0.876
- relative viability ([3]; first compound 0.04 µM): 0.995
- relative viability ([3]; first compound 0.1265 µM): 0.874
- relative viability ([3]; first compound 0.4 µM): 0.969
- relative viability ([3]; first compound 1.265 µM): 1.04
- relative viability ([3]; first compound 4 µM): 1.15

Cell Line: NCI-H838
- relative viability ([1]; first compound 0.04 µM): 1.01
- relative viability ([1]; first compound 0.1265 µM): 0.956
- relative viability ([1]; first compound 0.4 µM): 0.964
- relative viability ([1]; first compound 1.265 µM): 0.995
- relative viability ([1]; first compound 4 µM): 0.97
- relative viability (Salubrinal + Pictilisib; first compound 0.08 µM): 0.361
- relative viability (Salubrinal + Pictilisib; first compound 0.253 µM): 0.408
- relative viability (Salubrinal + Pictilisib; first compound 0.8 µM): 0.496
- relative viability (Salubrinal + Pictilisib; first compound 2.53 µM): 0.435
- relative viability (Salubrinal + Pictilisib; first compound 8 µM): 0.282
- relative viability ([2]; first compound 0.04 µM): 0.844
- relative viability ([2]; first compound 0.1265 µM): 0.777
- relative viability ([2]; first compound 0.4 µM): 0.795
- relative viability ([2]; first compound 1.265 µM): 0.789
- relative viability ([2]; first compound 4 µM): 0.762
- relative viability ([3]; first compound 0.04 µM): 1.16
- relative viability ([3]; first compound 0.1265 µM): 1.08
- relative viability ([3]; first compound 0.4 µM): 1.04
- relative viability ([3]; first compound 1.265 µM): 1.02
- relative viability ([3]; first compound 4 µM): 0.982

Cell Line: HARA
- relative viability ([1]; first compound 0.04 µM): 1.01
- relative viability ([1]; first compound 0.1265 µM): 0.933
- relative viability ([1]; first compound 0.4 µM): 0.885
- relative viability ([1]; first compound 1.265 µM): 0.791
- relative viability ([1]; first compound 4 µM): 0.927
- relative viability (Salubrinal + Pictilisib; first compound 0.08 µM): 0.524
- relative viability (Salubrinal + Pictilisib; first compound 0.253 µM): 0.328
- relative viability (Salubrinal + Pictilisib; first compound 0.8 µM): 0.558
- relative viability (Salubrinal + Pictilisib; first compound 2.53 µM): 0.328
- relative viability (Salubrinal + Pictilisib; first compound 8 µM): 0.375
- relative viability ([2]; first compound 0.04 µM): 0.951
- relative viability ([2]; first compound 0.1265 µM): 0.916
- relative viability ([2]; first compound 0.4 µM): 1.02
- relative viability ([2]; first compound 1.265 µM): 0.746
- relative viability ([2]; first compound 4 µM): 0.917
- relative viability ([3]; first compound 0.04 µM): 0.783
- relative viability ([3]; first compound 0.1265 µM): 0.829
- relative viability ([3]; first compound 0.4 µM): 0.903
- relative viability ([3]; first compound 1.265 µM): 0.956
- relative viability ([3]; first compound 4 µM): 0.861

Cell Line: NCI-H2087
- relative viability ([1]; first compound 0.04 µM): 1.03
- relative viability ([1]; first compound 0.1265 µM): 0.963
- relative viability ([1]; first compound 0.4 µM): 0.789
- relative viability ([1]; first compound 1.265 µM): 0.992
- relative viability ([1]; first compound 4 µM): 0.877
- relative viability (Salubrinal + Pictilisib; first compound 0.08 µM): 0.917
- relative viability (Salubrinal + Pictilisib; first compound 0.253 µM): 0.892
- relative viability (Salubrinal + Pictilisib; first compound 0.8 µM): 1.02
- relative viability (Salubrinal + Pictilisib; first compound 2.53 µM): 0.853
- relative viability (Salubrinal + Pictilisib; first compound 8 µM): 0.963
- relative viability ([2]; first compound 0.04 µM): 1.1
- relative viability ([2]; first compound 0.1265 µM): 0.926
- relative viability ([2]; first compound 0.4 µM): 0.782
- relative viability ([2]; first compound 1.265 µM): 0.932
- relative viability ([2]; first compound 4 µM): 0.727
- relative viability ([3]; first compound 0.04 µM): 1.13
- relative viability ([3]; first compound 0.1265 µM): 1.08
- relative viability ([3]; first compound 0.4 µM): 1.11
- relative viability ([3]; first compound 1.265 µM): 1.05
- relative viability ([3]; first compound 4 µM): 1.09

Cell Line: NCI-H1437
- relative viability ([1]; first compound 0.04 µM): 0.991
- relative viability ([1]; first compound 0.1265 µM): 0.932
- relative viability ([1]; first compound 0.4 µM): 1.03
- relative viability ([1]; first compound 1.265 µM): 0.936
- relative viability ([1]; first compound 4 µM): 0.821
- relative viability (Salubrinal + Pictilisib; first compound 0.08 µM): 0.449
- relative viability (Salubrinal + Pictilisib; first compound 0.253 µM): 0.484
- relative viability (Salubrinal + Pictilisib; first compound 0.8 µM): 0.415
- relative viability (Salubrinal + Pictilisib; first compound 2.53 µM): 0.417
- relative viability (Salubrinal + Pictilisib; first compound 8 µM): 0.328
- relative viability ([2]; first compound 0.04 µM): 0.96
- relative viability ([2]; first compound 0.1265 µM): 0.968
- relative viability ([2]; first compound 0.4 µM): 0.965
- relative viability ([2]; first compound 1.265 µM): 0.952
- relative viability ([2]; first compound 4 µM): 0.915
- relative viability ([3]; first compound 0.04 µM): 1.32
- relative viability ([3]; first compound 0.1265 µM): 1.23
- relative viability ([3]; first compound 0.4 µM): 1.33
- relative viability ([3]; first compound 1.265 µM): 1.28
- relative viability ([3]; first compound 4 µM): 1.2

Cell Line: NCI-H358
- relative viability ([1]; first compound 0.04 µM): 0.755
- relative viability ([1]; first compound 0.1265 µM): 0.769
- relative viability ([1]; first compound 0.4 µM): 0.694
- relative viability ([1]; first compound 1.265 µM): 0.88
- relative viability ([1]; first compound 4 µM): 0.665
- relative viability (Salubrinal + Pictilisib; first compound 0.08 µM): 0.328
- relative viability (Salubrinal + Pictilisib; first compound 0.253 µM): 0.455
- relative viability (Salubrinal + Pictilisib; first compound 0.8 µM): 0.356
- relative viability (Salubrinal + Pictilisib; first compound 2.53 µM): 0.309
- relative viability (Salubrinal + Pictilisib; first compound 8 µM): 0.373
- relative viability ([2]; first compound 0.04 µM): 0.613
- relative viability ([2]; first compound 0.1265 µM): 0.594
- relative viability ([2]; first compound 0.4 µM): 0.691
- relative viability ([2]; first compound 1.265 µM): 0.583
- relative viability ([2]; first compound 4 µM): 0.487
- relative viability ([3]; first compound 0.04 µM): 0.752
- relative viability ([3]; first compound 0.1265 µM): 0.718
- relative viability ([3]; first compound 0.4 µM): 0.635
- relative viability ([3]; first compound 1.265 µM): 0.721
- relative viability ([3]; first compound 4 µM): 0.654
